From patent publication US8080579B2, “Compositions and methods for treatment of inflammatory bowel disease” (The Regents of The University of Michigan, priority 2005, dated 2011)

Assays:
[1] = system: angiotensin converting enzyme (ACE); test: IEL ACE mRNA by real time PCR, short bowel syndrome model; assay type: in vivo, mice; details: enalaprilat 0.6 mg/kg/day i.p., 7 days
Procedure: (§1) Short Bowel Syndrome Model: A 70% mid-small bowel resection was performed (i.e. bowel between 3.5 cm distal to the ligament of Treitz and 3.5 cm proximal to the ileocecal valve), followed by an end-to-end jejuno-ileal anastomosis with 7-0 monofilament, absorbable suture. Postoperatively a subcutaneous bolus of 3 ml 0.9% saline solution was given to maintain hydration status.
(§2) Sham operation: Mid-small bowel was transsected and re-anastomosed without bowel-resection.
IEL purification: Isolation of purified IEL from EC was performed by direct magnetic separation. Magnetic beads conjugated with antibody to CD45 (pan-lymphoid marker) were used to segregate IEL from EC (BioMag SelectaPure Anti-Mouse CD 45R Antibody Particles, Polyscience Inc., Warrington, Pa.). Magnetic separation was performed twice to further deplete EC. […]
Real time PCR: Real-time PCR was run to better quantify actual changes in ACE expression. cDNA was also used for real time PCR. The same primers for ACE and β-actin were used as for conventional PCR, SYBR Green I was utilized for fluorescence. […] Ct-values of ACE and β-actin were converted to numbers of cDNA copies, and results expressed as the ratio of ACE over β-actin expression.
(§3) To further understand the relevance of ACE expression on EC apoptosis, ACE-inhibition was used. […] After 1 week, mice were killed, EC apoptotic rates assessed, and IEL mRNA and protein isolated.

[2] = system: angiotensin converting enzyme (ACE); test: IEL ACE protein by immunoblot, short bowel syndrome model; assay type: in vivo, mice; details: enalaprilat 0.6 mg/kg/day i.p., 7 days
Procedure: as §1, §2
(§4) IEL purification: Isolation of purified IEL from EC was performed by direct magnetic separation. Magnetic beads conjugated with antibody to CD45 (pan-lymphoid marker) were used to segregate IEL from EC (BioMag SelectaPure Anti-Mouse CD 45R Antibody Particles, Polyscience Inc., Warrington, Pa.). […]
Immunoblot analysis: Protein was extracted from isolated IEL and immunoblots performed by using a Bio-Rad protein assay kit (Bio-Rad Laboratories, Hercules, Calif.), with standard methods. […] Expression for β-actin was determined in the same fashion by re-probing membranes with purified anti-mouse β-actin (1:12000, Sigma-Aldrich, St. Louis, Mo.). Results are expressed as the ratio of ACE over β-actin protein expression.
as §3

TNF-α = test: IEL TNF-α mRNA by RT-PCR, short bowel syndrome model; assay type: in vivo; details: Sham operated mice, enalaprilat 0.6 mg/kg/day i.p., 7 days
Procedure: as §1, §2, §4
Reverse transcriptase polymerase chain reaction (RT-PCR): mRNA (poly-A positive) was reversed transcribed into cDNA following a standard protocol. […] Gel bands were analyzed by DNA sequencing to ensure the correct product. Kodak EDAS System (Rochester, N.Y.) was used for imaging and quantification. Results were expressed as the ratio of the investigated mRNA over the β-actin mRNA expression.
as §3

[3] = system: intestinal epithelial cells; test: Epithelial cell proliferation (BrdU), short bowel syndrome model; assay type: in vivo, mice; details: FIG. 11
Procedure: Epithelial cell proliferation: Mice were given a dose of bromodeoxyuridine (BrdU) 1 to 2 hours prior to sacrifice. Tissues harvested from the intestine were subsequently stained for BrdU as a marker of cellular proliferation.

With C[C@H](N[C@@H](CCc1ccccc1)C(=O)O)C(=O)N1CCC[C@H]1C(=O)O [ACE-I, enalaprilat] the “IEL ACE mRNA (ratio of ACE-cDNA copies over β-actin-cDNA copies)” value ([1]; SBS mice) was 0.63 ± 0.25, the “IEL ACE mRNA (ratio of ACE-cDNA copies over β-actin-cDNA copies)” value ([1]; Sham operated mice) was 0.66 ± 0.22 and the IEL ACE protein (ratio of ACE over β-actin protein expression) ([2]; SBS mice) was 0.14 ± 0.03. The “IEL ACE protein (ratio of ACE over β-actin protein expression)” value ([2]; Sham operated mice) was 0.13 ± 0.01, the “IEL TNF-α mRNA (ratio over β-actin mRNA)” value (TNF-α) was 0.37 ± 0.07 and the Epithelial cell proliferation [3] was “increase significantly”.
